Data from publication PMC9057582, “HIF inhibitor 32-134D eradicates murine hepatocellular carcinoma in combination with anti-PD1 therapy” (The Journal of Clinical Investigation, 2022).

Assays:
[1] = system: HIF-1, HIF-2 and p300 recruitment to HREs; assay: ChIP-qPCR of HRE occupancy in Hep3B cells; format: cell-based, human; settings: 16 hours, 5 µM 32-134D or 10 µM PT2385
Experimental: Coadministration of the proteasome inhibitor MG-132 blocked the effect of 32-134D on HIF-1α protein levels (Figure 1H). […] Taken together, the results presented in Figure 1 and Supplemental Figures 1–3 indicate that 32-134D induces HIF-α subunit degradation, thereby inhibiting activation of HIF-1 and HIF-2 target gene transcription.
Cells were seeded overnight and then exposed to 20% or 1% O2 in the presence of compound or vehicle for 16 hours. Protein was cross-linked to DNA by addition of 37% formaldehyde to culture medium for 10 minutes at 37°C and quenched by addition of 0.1 M glycine. Cells were washed with and collected in 5 mL of cold PBS containing PIs. Cells were pelleted and resuspended in 200 μL of SDS lysis buffer (50 mM Tris-HCl [pH 8.1], 10 mM EDTA, 1% SDS) containing PIs and incubated on ice for 10 minutes. Lysates were sonicated to produce DNA fragments ranging from 200 to 900 bp and centrifuged for 10 minutes at 4°C. Supernatants were collected and diluted 10-fold with dilution buffer (16.7 mM Tris-HCl [pH 8.1], 167 mM NaCl, 1.2 mM EDTA, 0.01% SDS, 1.1% Triton X-100) with PIs, precleared with 20 μL of salmon sperm DNA/protein A agarose slurry, and a 20-μL aliquot was reserved as input control. Antibody (2 μg; see Supplemental Table 6) was added and samples were rotated overnight at 4°C. Immune complexes were precipitated with 50 μL of salmon sperm DNA/protein A agarose slurry. Pelleted beads were washed serially using low-salt wash buffer (20 mM Tris-HCl [pH 8.1], 150 mM NaCl, 2 mM EDTA, 0.1% SDS, 1% Triton X-100); high-salt wash buffer (20 mM Tris-HCl [pH 8.1], 500 mM NaCl, 2 mM EDTA, 0.1% SDS, 1% Triton X-100); LiCl wash buffer (10 mM Tris-HCl [pH 8.1], 0.25 M LiCl, 1% Nonidet P-40, 1% deoxycholate, 1 mM EDTA); and TE buffer (10 mM Tris-HCl [pH 8.1], 1 mM EDTA). Elution buffer (1% SDS, 0.1 M NaHCO3) was added and eluates were heated at 65°C overnight to reverse cross-linking. Eluates were treated with proteinase K for 1 hour at 45°C and DNA was purified by extraction in phenol/chloroform/isoamyl alcohol (25:24:1, v/v/v) and isopropanol precipitation. […]

Hepa1-6 tumors = assay: Intratumoral mRNA (RT-qPCR, RT-qPCR array) and protein (ELISA) expression in Hepa1-6 tumors; format: in vivo, C57L mice
Experimental: By contrast, the expression of mRNAs encoding the chemokine CXCL1 and interleukins IL-6 and IL-10, which recruit/activate TAMs and/or MDSCs (Supplemental Table 4), was inhibited by 32-134D treatment (P < 0.05; Figure 6D).
Figure 6 Effect of 32-134D on intratumoral gene expression. (A–D) C57L mice were injected with Hepa1-6 HCC cells subcutaneously and when tumors reached a volume of 200 mm^3, the mice were treated with vehicle (blue bars) or 32-134D (40 mg/kg; red bars) by daily intraperitoneal injection for 8 days. The tumors were harvested and mRNA was quantified by RT-qPCR and normalized to blue (mean ± SEM, n = 4). *P < 0.05 versus blue (ANOVA with Bonferroni’s post hoc test). (E) Effect of 32-134D on intratumoral expression of cytokines and chemokines. Total RNA isolated from tumors of 32-134D–treated versus vehicle-treated mice (n = 3 each) was analyzed using an RT-qPCR array and the ratio of mean expression (32-134D/vehicle) was determined. mRNAs with a significant difference between groups (P < 0.05, Student’s t test) are annotated.
Figure 7 Effect of 32-134D on intratumoral expression of immunoregulatory proteins. (A–H) Lysates prepared from tumors of 32-134D–treated versus vehicle-treated mice were subjected to ELISA for secreted proteins mediating antitumor immunity (CXCL2, CXCL9, CXCL10) or immunosuppression (CXCL1, IL-6, IL-10, VEGFA). The data are presented as mean ± SEM (n = 4 each). *P < 0.05 (Mann-Whitney test).
Tumors were homogenized in ice-cold PBS supplemented with 1% Triton X-100 and PIs, centrifuged at 10,000g for 20 minutes to pellet debris, and the supernatant was collected for ELISA using commercial kits (Supplemental Table 6). Optical density was obtained at 450 nm (corrected for readings at 570 nm) using the VICTOR Nivo plate reader. Sample protein concentration was calculated by linear regression from a standard curve.
Total RNA from Hepa1-6 tumors was analyzed using the RT^2 Profiler PCR Array of Mouse Cytokines and Chemokines (Supplemental Table 6) according to the manufacturer’s instructions.

[2] = RT-qPCR array of 84 mRNAs, P < 0.05
[3] = RT-qPCR, 40 mg/kg, 8 days, P < 0.05

With Brc1ccc2c(-c3csc(-c4c[nH]c5c(Br)cccc45)n3)c[nH]c2c1 [Compound 32-134D] as the compound, how does the “hypoxia-induced recruitment of HIFs and p300 to EPO and ANGPTL4 HREs” value [1] read?
Its value is “impaired”.

And the “hypoxia-induced recruitment of HIFs and p300 to the CA9 HRE” value [1]?
The value was “impaired”.

And the “CXCL1, IL-6, IL-10, and VEGFA protein in tumor lysates” value (Hepa1-6 tumors; ELISA)?
Its value is “decreased levels”.

And the “CXCL2, CXCL9, and CXCL10 protein in tumor lysates” value (Hepa1-6 tumors; ELISA, P < 0.05)?
Its value is “significantly increased levels”.

What about the “number of cytokine/chemokine mRNAs with decreased expression” value (Hepa1-6 tumors; [2]) of the same compound?
Its value is 40 mRNAs.

And the “number of cytokine/chemokine mRNAs with increased expression” value (Hepa1-6 tumors; [2])?
The value was 5 mRNAs.

What about the “tumor expression of CXCL1, IL-6 and IL-10 mRNA” value (Hepa1-6 tumors; [3]) of the same compound?
Its value is “inhibited”.

What about the “tumor expression of CXCL9, CXCL10, and IFN-γ mRNA” value (Hepa1-6 tumors; [3]) of the same compound?
The value was “increased”.

And the “tumor mRNAs encoding angiogenic factors (ANGPTL4, EPO, PGF, VEGFA) and immunosuppression proteins (B7H4, CD47, CD73, PDL1, SLC2A1, HAVCR2, CD70, LDHA, ENTPD1, CA9)” value (Hepa1-6 tumors; [3])?
Its value is “significantly decreased”.
